Patent US20250057913A1, “USE OF SOMATOSTATIN AGONIST IN THE TREATMENT OF SSTR3 EXPRESSING TUMORS” (ITALFARMACO SPA, priority 2021, published 2025)
*1 amine or outer side, *2 acyl side, *3 side chain or, on linkers, in order; H or OH if unused. Where a SMILES comes first, the peptide text is derived from it. Side-chain parts run from the residue outwards. [ ]: non-standard residue; d: D form. The star is where a group is joined. Ethylenediamine = C(CN[*:2])N[*:1]; Hyp = O=C(O)[C@@H]1C[C@@H](O)CN1; Phg = N[C@H](C(=O)O)c1ccccc1; CO = O=C([*:1])[*:2]; Bn = c1ccc(C*)cc1

Experiments:
SSTR3-tGFP = SSTR3-tGFP (Homo sapiens, UniProt P32745); test: Internalization of SSTR3 in U2OS transfected cells; format: cell-based; design: expressed in transfected cells; host or cells: U2OS
Sequence of SSTR3-tGFP (P32745 whole entry): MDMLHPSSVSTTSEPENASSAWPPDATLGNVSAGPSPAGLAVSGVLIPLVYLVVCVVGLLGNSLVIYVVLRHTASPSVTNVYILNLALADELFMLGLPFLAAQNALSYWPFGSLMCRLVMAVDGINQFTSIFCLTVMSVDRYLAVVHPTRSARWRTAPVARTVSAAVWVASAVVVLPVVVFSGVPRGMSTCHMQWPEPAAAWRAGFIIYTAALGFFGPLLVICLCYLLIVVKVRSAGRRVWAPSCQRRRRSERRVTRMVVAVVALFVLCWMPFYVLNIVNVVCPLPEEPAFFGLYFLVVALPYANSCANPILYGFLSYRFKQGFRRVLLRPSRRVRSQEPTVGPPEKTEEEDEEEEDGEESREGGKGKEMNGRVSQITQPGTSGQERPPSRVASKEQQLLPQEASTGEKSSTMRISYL
Excerpt: (§1) HEK293 cells transfected with human SSTRs, and U20S cells transfected with human GFP-tagged receptors (SSTR2-tGFP, SSTR3-tGFP, SSTR5-tGFP).

SSTR2 [1] = target: T1, SSTR2 (Homo sapiens, UniProt P30874); test: SSTR2 phosphorylation in HEK293 transfected cells (phosphosite-specific antibodies); format: cell-based; design: expressed in transfected cells; details: 10 or 1 μM, 10 min at 37° C.
T1 sequence (P30874 whole entry): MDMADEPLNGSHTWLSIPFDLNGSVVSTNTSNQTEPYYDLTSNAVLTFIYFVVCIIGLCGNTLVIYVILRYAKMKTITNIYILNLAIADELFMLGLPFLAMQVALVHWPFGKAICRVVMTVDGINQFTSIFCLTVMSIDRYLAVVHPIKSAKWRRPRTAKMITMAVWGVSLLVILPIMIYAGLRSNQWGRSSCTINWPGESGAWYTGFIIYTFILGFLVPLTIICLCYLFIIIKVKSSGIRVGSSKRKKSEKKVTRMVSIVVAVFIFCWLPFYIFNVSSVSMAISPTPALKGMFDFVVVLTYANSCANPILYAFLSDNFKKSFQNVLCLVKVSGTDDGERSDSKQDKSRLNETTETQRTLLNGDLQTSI
Protocol: (A) Schematic representation of the human SSTR2 receptor indicating all potential phosphate acceptor sites within the carboxyl-terminal tail. Epitopes of the phosphosite-specific antibodies are marked (-P). […] The levels of phosphorylated SSTR2 receptor were then determined using the phosphosite-specific anti-pS341/pS343, pT353/T354, pT356/T359 antibodies. […] Blots shown are representative of three independent experiments. The positions of molecular mass markers are indicated on the left (in kDa).

SSTR2-tGFP = SSTR2-tGFP (Homo sapiens, UniProt P30874); test: Internalization of SSTR2 in U2OS transfected cells; format: cell-based; design: expressed in transfected cells; host or cells: U2OS
Sequence of SSTR2-tGFP (P30874 whole entry): as above
Excerpt: as §1

NT-3 cell line spheroids = test: Cytotoxic activity on NT-3 cell line spheroids; format: cell-based, human; details: 2.56 μM, 18 days
Protocol: NT-3 well-differentiated pancreatic neuroendocrine (PanNET) cell line (32) is an in-vitro model for pancreatic tumours.
Said cells were cultured in RPMI 1640 Medium GlutaMAX™ with 10% FBS, 1% Penicillin/Streptomycin, 20ng/ml EGF (AF-100-15, Peprotech), 10 ng/ml FGF (100-18B, Peprotech).
3D spheroids were generated by seeding 2000 cells/well in a 96-well ULA plate (Corning). Four replicates for each condition were seeded.
The spheroid formation required 4 days before starting the treatment.
The treatment was repeated every 3 days by replacing 50% of the medium (to avoid spheroid removal) with new medium containing 2× desired drug concentration.
Spheroid morphology was monitored every day during the treatment and pictures were taken on day 0, 4, 7, 11, 14, 18. Day 0 corresponds to the first day of treatment. Pictures were taken from the same well every time point.

SSTR5 [2] = target: T2, SSTR5 (Homo sapiens, UniProt P35346)
T2 sequence (P35346 whole entry): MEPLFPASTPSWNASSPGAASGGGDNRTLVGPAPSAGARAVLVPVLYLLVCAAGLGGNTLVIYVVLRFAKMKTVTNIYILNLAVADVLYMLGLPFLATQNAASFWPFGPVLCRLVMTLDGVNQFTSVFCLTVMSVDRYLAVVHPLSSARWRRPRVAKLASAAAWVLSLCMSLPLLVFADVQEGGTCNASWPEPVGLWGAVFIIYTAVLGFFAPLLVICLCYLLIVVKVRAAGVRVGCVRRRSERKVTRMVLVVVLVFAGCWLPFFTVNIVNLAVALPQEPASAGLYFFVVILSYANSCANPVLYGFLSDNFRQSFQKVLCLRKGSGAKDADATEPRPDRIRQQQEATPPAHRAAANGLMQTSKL
Excerpt: (§3) Therefore, G protein-signaling mediated by SSTR agonists was studied using a GIRK-based fluorescence membrane potential assay both in HEK293 cells transfected with hSSTR3, and in AtT20 wild-type as well as hSSTR3-transfected cells.

[3] = system: NFPAs in MENX (homozygous mutant) rats; details: female and male rats; cited from earlier work
SSTR5-tGFP = SSTR5-tGFP (Homo sapiens, UniProt P35346); test: Internalization of SSTR5 in U2OS transfected cells; format: cell-based; design: expressed in transfected cells; host or cells: U2OS
Sequence of SSTR5-tGFP (P35346 whole entry): as above
Excerpt: as §1

SSTR3 [4] = target: T3, SSTR3 (Homo sapiens, UniProt P32745); test: SSTR3 phosphorylation in HEK293 transfected cells (phosphosite-specific antibodies); format: cell-based; design: expressed in transfected cells; details: 10^−12 to 10^−5 M, 10 min at 37° C.
T3 sequence (P32745 whole entry): as the sequence (P32745 whole entry) above
Protocol: The levels of phosphorylated SST3 receptor were then determined using the phosphosite-specific anti-pS337/pT341 or anti-pT348.
(§2) Finally, the SSTR5 pT333 phosphosite was only partially affected by all tested compounds, with Pasireotide showing the most pronounced effect (FIG. 9B, C).

opioid receptors = test: single dose binding assays on opioid receptors; details: single dose 10^−5 M
SSTR2 [5] = target: T1, SSTR2; test: cell-based; design: expressed in transfected cells; host or cells: HEK293 co-expressing GIRK2-GFP
Excerpt: as §3

[6] = system: Clinically Non-Functioning Pituitary Adenoma; details: Pasireotide LAR, NFPA patients; cited from earlier work
SSTR3 [7] = target: T3, SSTR3; test: GIRK-based fluorescence membrane potential assay, HEK293-GIRK2-GFP-HA-hSST3
Excerpt: The concentrations used are indicated. […] Data points represent mean±S.E.M.
as §3

SSTR5 [8] = target: T2, SSTR5; test: SSTR5 phosphorylation in HEK293 transfected cells (anti-pT333); format: cell-based; design: expressed in transfected cells; details: 10 min at 37° C.
Excerpt: FIG. 9—Agonist-selective SSTR5 phosphorylation in HEK293 transfected cells. (A) Schematic representation of the human SSTR5 receptor indicating all potential phosphate acceptor site within the carboxyl-terminal tail. Epitope of the phosphosite-specific antibodies are marked (-P) . . . […] (C) Blots were subsequently stripped and reprobed with anti-HA antibody to confirm equal loading of the gels. Blots shown are representative of three independent experiments. The positions of molecular mass markers are indicated on the left (in kDa).
as §2

[9] = target: wild-type hSSTR2 stably expressed in HEK293 cells (human) (UniProt P30874)
[10] = target: wild-type hSSTR3 stably expressed in HEK293 cells (human) (UniProt P32745)
[11] = target: wild-type hSSTR5 stably expressed in HEK293 cells (human) (UniProt P35346)

Compound | Mean of internalized fluorescence, SSTR3 (SSTR3-tGFP; 1 μM) [AU] | Mean of internalized fluorescence, SSTR3 (SSTR3-tGFP; 10 μM) [AU] | phosphorylation of SSTR2 (pS341/pS343, pT353/T354, pT356/T359) (SSTR2 [1]) | Mean of internalized fluorescence, SSTR2 (SSTR2-tGFP; 1 μM) [AU] | Mean of internalized fluorescence, SSTR2 (SSTR2-tGFP; 10 μM) [AU] | spheroid morphology at the highest concentration (NT-3 cell line spheroids) | Compound activity (EC50 nM), GIRK membrane potential assay [9] [nM] | other results
C[C@@H](O)[C@@H]1NC(=O)[C@H](CCCCN)NC(=O)[C@@H](Cc2c[nH]c3ccccc23)NC(=O)[C@H](Cc2ccccc2)NC(=O)[C@@H](NC(=O)[C@H](N)Cc2ccccc2)CSSC[C@@H](C(=O)N[C@H](CO)[C@@H](C)O)NC1=O [Octreotide] | 43.4 | 55.2 | full phosphorylation of SSTR2 | 74.1 | 81.0 | still maintain their morphology | – | rank as SSTR2-tGFP internalization inducer (SSTR2-tGFP): most potent internalization inducer
NCCCC[C@@H]1NC(=O)[C@@H](Cc2c[nH]c3ccccc23)NC(=O)[C@H](c2ccccc2)NC(=O)[C@@H]2C[C@@H](OC(=O)NCCN)CN2C(=O)[C@H](Cc2ccccc2)NC(=O)[C@H](Cc2ccc(OCc3ccccc3)cc2)NC1=O [Pasireotide, reference compound] (cyclo([Hyp]([CO-Ethylenediamine])[Phg][dW]KY(Bn)F)) | 41.6 | 46.3 | selective phosphorylation of S341/S343 | 49.2 | 50.5 | still maintain their morphology | – | EC50 (SSTR5 [2]): 16.5 ± 2.5 nM; antitumor activity in the MENX model (published report) [3]: higher antitumor activity than Octreotide; Mean of internalized fluorescence, SSTR5 (SSTR5-tGFP; 1 μM): 40.5 AU; Mean of internalized fluorescence, SSTR5 (SSTR5-tGFP; 10 μM): 43.9 AU; phosphorylation of SSTR3 (pS337/pT341, pT348) (SSTR3 [4]): weak effect; replacement of agonists (opioid receptors): fully replace agonists; EC50 (SSTR2 [5]): 60 ± 16.3 nM; patients reaching a tumor size reduction at least 20% [6]: 16.7%; EC50 (SSTR3 [7]): 63 ± 7.5 nM; phosphorylation of SSTR5 (pT333) (SSTR5 [8]): more potent than ITF2984 and octreotide
Octreotide (peptide) | – | – | – | – | – | – | 4 | –
Pasireotide (peptide) | – | – | – | – | – | – | 60 | Compound activity (EC50 nM), GIRK membrane potential assay [10]: 63 nM; Compound activity (EC50 nM), GIRK membrane potential assay [11]: 16.5 nM
